Assay results: ChEMBL document CHEMBL6109105, “Design, synthesis and antibacterial evaluation of oxazolidinone derivatives containing N-methylglycyl or quaternary ammonium salts” (Bioorg Med Chem, 2025)
Values after ≈ are worked out from the molar mass of the structure shown. Active and inactive are the calls of the source. The rule behind the calls is not given here.

Key:
[1] = tested on: Streptococcus pneumoniae; experiment: Antibacterial activity against penicillin-resistant Streptococcus pneumoniae; assay type: functional
[2] = tested on: Staphylococcus aureus; experiment: Antibacterial activity against methicillin-resistant Staphylococcus aureus; assay type: functional
[3] = tested on: Enterococcus; experiment: Antibacterial activity against vancomycin-resistant enterococcus; assay type: functional
[4] = tested on: Staphylococcus aureus; experiment: Antibacterial activity against methicillin-sensitive Staphylococcus aureus; assay type: functional
[5] = (§1) Selectivity ratio of MIC for antibacterial activity against Enterococcus faecalis assessed as inhibition of bacterial growth measured after 3 hrs in presence of 50% plasma to MIC for antibacterial activity against Enterococcus faecalis assessed as inhibition of bacterial growth assessed as inhibition of bacterial growth measured after 16 to 18 hrs; assay type: functional
[6] = as §1, with “immediately” for “after 3 hrs”; assay type: functional
[7] = tested on: Cell membrane; experiment: Induction of cytoplasmic membrane permeability in Enterococcus faecalis assessed as increase in fluorescence intensity at 8 times of MIC by PI staining based analysis
[8] = Cytotoxicity against human HeLa cells assessed as cell viability at 64 microg/ml incubated for 24 hrs by CCK8 assay relative to control; assay type: toxicity, cell-based; conditions: at 64 µg/mL, read-out: Activity
[9] = tested on: HeLa; experiment: Cytotoxicity against human HeLa cells assessed as increase in red fluorescence at 32 microg/ml incubated for 24 hrs by calcein-AM/PI staining based fluorescence microscopic analysis; assay type: toxicity, cell-based; conditions: dose 32 µg/ml
[10] = tested on: Enterococcus faecalis; experiment: Antibacterial activity against Enterococcus faecalis assessed as inhibition of bacterial growth incubated for 3 hrs in presence of 50% plasma by dilution method; assay type: functional
[11] = tested on: Enterococcus faecalis; experiment: Drug resistance, ratio of MIC for Enterococcus faecalis measured after 15 days to MIC for Enterococcus faecalis measured after 16 to 18 hrs; assay type: functional
[12] = tested on: Cell membrane; experiment: Induction of cell membrane damage in Enterococcus faecalis assessed as nucleic acid leakage at 32 times of MIC incubated for 2 hrs by fluorescence spectrophotometric analysis; assay type: subcellular
[13] = tested on: Enterococcus faecalis; experiment: Disruption of preformed biofilm in Enterococcus faecalis assessed as bacterial survival rate at 16 times of MIC measured after 24 hrs relative to control; assay type: functional
[14] = tested on: Enterococcus faecalis; experiment: Antibacterial activity against Enterococcus faecalis assessed as post-antibiotic effect at 8 times of MIC measured up to 8 hrs; assay type: functional
[15] = tested on: Enterococcus faecalis; experiment: Post-antibiotic affect in Enterococcus faecalis assessed as reduction in growth rate at 16 times of MIC measured after 1 hrs; assay type: functional, organism-based
[16] = tested on: Enterococcus faecalis; experiment: Antibacterial activity against Enterococcus faecalis assessed as inhibition of bacterial growth incubated for 3 hrs in presence of 50% MHB by dilution method; assay type: functional, organism-based
[17] = tested on: Staphylococcus aureus; experiment: Antibacterial activity against Staphylococcus aureus ATCC 29213 assessed as inhibition of bacterial growth incubated for 16 to 18 hrs by microbroth dilution method; assay type: functional; conditions: time 16-18 hrs, read-out: MIC100
[18] = tested on: Cell membrane; experiment: Induction of cell membrane damage in Enterococcus faecalis assessed as nucleic acid leakage at 16 times of MIC incubated for 2 hrs by fluorescence spectrophotometric analysis; assay type: subcellular
[19] = tested on: Enterococcus faecalis; experiment: Post-antibiotic affect in Enterococcus faecalis assessed as reduction in growth rate at 8 times of MIC measured after 1 hrs; assay type: functional, organism-based
[20] = tested on: Enterococcus faecalis; experiment: Induction of ROS-dependent oxidative stress in Enterococcus faecalis assessed as decrease in GSH activity at 8 times of MIC (reference value: 1.34 %); assay type: functional; set-up: scale not given: the % may be the effect or the level left
[21] = tested on: Stenotrophomonas maltophilia; experiment: Antibacterial activity against Stenotrophomonas maltophilia ATCC 17808 assessed as inhibition of bacterial growth incubated for 16 to 18 hrs by microbroth dilution method; assay type: functional; conditions: time 16-18 hrs, read-out: MIC100
[22] = tested on: Enterococcus faecalis; experiment: Antipersister-activity against in Enterococcus faecalis assessed as log reduction in persistent cells at 32 times of MIC preincubated with 100 times of MIC of rifampicin for 24 hrs followed by compound addition and measured after 8 hrs by drop plate counting method; assay type: functional
[23] = tested on: Enterococcus faecalis; experiment: Disruption of preformed biofilm in Enterococcus faecalis assessed as bacterial survival rate at 32 times of MIC measured after 24 hrs relative to control; assay type: functional
[24] = tested on: Cell membrane; experiment: Induction of cytoplasmic membrane depolarization in Enterococcus faecalis assessed as increase in fluorescence intensity by DiSC35 dye based microplate reader analysis
[25] = tested on: Enterococcus faecalis; experiment: Induction of ROS accumulation in Enterococcus faecalis assessed as fluorescence intensity at 8 times of MIC incubated for 30 mins by DCFH-DA staining based microplate reader analysis; assay type: functional; conditions: 0.5 h
[26] = tested on: Cell membrane; experiment: Induction of cell membrane damage in Enterococcus faecalis assessed as nucleic acid leakage at 8 times of MIC incubated for 2 hrs by fluorescence spectrophotometric analysis; assay type: subcellular
[27] = tested on: Escherichia coli; experiment: Antibacterial activity against Escherichia coli ATCC 25922 assessed as inhibition of bacterial growth incubated for 16 to 18 hrs by microbroth dilution method; assay type: functional; conditions: time 16-18 hrs, read-out: MIC100
[28] = Hemolytic activity in sheep RBC assessed as hemolysis incubated for 1 hrs by microplate reader analysis; assay type: toxicity, cell-based, Ovis aries, Erythrocyte; conditions: sheep red blood cells
[29] = tested on: Enterococcus faecalis; experiment: Antibacterial activity against Enterococcus faecalis ATCC 29212 assessed as inhibition of bacterial growth incubated for 16 to 18 hrs by microbroth dilution method; assay type: functional; conditions: time 16-18 hrs, read-out: MIC100
[30] = tested on: Enterococcus faecalis; experiment: Bactericidal activity against Enterococcus faecalis assessed as reduction in bacterial count at 4 times of MIC measured within 10 hrs by time-kill kinetics analysis; assay type: functional
[31] = tested on: Enterococcus faecalis; experiment: Antibacterial activity against Enterococcus faecalis assessed as inhibition of bacterial growth incubated for 16 to 18 hrs in presence of 50% MHB by dilution method; assay type: functional; conditions: time 16-18 hrs
[32] = tested on: Enterococcus faecalis; experiment: Antibacterial activity against Enterococcus faecalis assessed as inhibition of bacterial growth at 0.5 times of MIC incubated for 15 days by bacterial resistance development assay; assay type: functional, organism-based; conditions: time 15.0 day
[33] = tested on: HeLa; experiment: Cytotoxicity against human HeLa cells assessed as increase in fluorescence intensity at 1 to 16 microg/ml by vesicle leakage assay; assay type: toxicity, cell-based; conditions: dose 1-16 µg/ml
[34] = tested on: Enterococcus faecalis; experiment: Induction of ROS-dependent oxidative stress in Enterococcus faecalis assessed as decrease in GSH activity at 32 microg/ml (reference value: 1.34 %); assay type: functional; set-up: scale not given: the % may be the effect or the level left; conditions: dose 32 µg/ml
[35] = tested on: Enterococcus faecalis; experiment: Induction of ROS accumulation in Enterococcus faecalis assessed as increase in fluorescence intensity at 8 times of MIC incubated for 30 mins in presence of NAC by DCFH-DA staining based microplate reader analysis; assay type: functional, organism-based
[36] = tested on: Enterococcus faecalis; experiment: Antibacterial activity against Enterococcus faecalis assessed as inhibition of bacterial growth incubated for 16 to 18 hrs in presence of 50% serum by dilution method; assay type: functional; conditions: time 16-18 hrs
[37] = tested on: Enterococcus faecalis; experiment: Antibacterial activity against Enterococcus faecalis assessed as inhibition of bacterial growth incubated for 16 to 18 hrs in presence of 50% plasma by dilution method; assay type: functional; conditions: time 16-18 hrs
[38] = tested on: Enterococcus faecalis; experiment: Drug resistance, ratio of MIC for Enterococcus faecalis measured after 5 days to MIC for Enterococcus faecalis measured after 16 to 18 hrs; assay type: functional
[39] = tested on: Enterococcus faecalis; experiment: Disruption of preformed biofilm in Enterococcus faecalis assessed as reduction in bacterial density at 32 times of MIC measured after 24 hrs by SYTO 9 staining based confocal laser scanning microscopic analysis; assay type: functional, organism-based
[40] = tested on: Enterococcus faecalis; experiment: Antibacterial activity against Enterococcus faecalis assessed as post-antibiotic effect at 16 times of MIC measured up to 8 hrs; assay type: functional
[41] = Hemolytic activity in sheep RBC assessed as hemolysis at 1280 microg/ml incubated for 1 hrs by microplate reader analysis relative to control; assay type: toxicity, cell-based, Ovis aries, Erythrocyte; conditions: sheep red blood cells, dose 1280 µg/ml, read-out: Activity

Compound | Selectivity ratio [5] | Activity [7] | viability at 24 h, 64 microg/ml [8] | Activity [9] | MIC [10] | Activity [12] | Activity [13] | PAE [14] | Activity [15] | Activity [16] | MIC [17] | Activity [18] | Activity [19] | MIC [21] | Activity [22] | Activity [23] | Activity [24] | Flu intensity [25] | MIC [27] | HC50 at 1 h [28] | also measured
CC(=O)NC[C@H]1CN(c2ccc(N3CCN(Cc4ccc([N+](=O)[O-])o4)CC3)c(F)c2)C(=O)O1 [RANBEZOLID] |  |  |  |  |  |  |  |  |  |  |  |  |  |  |  |  |  |  |  |  | MIC [1]: 0.06 µg/mL (≈ 0.13 µM); MIC [2]: 0.06 µg/mL (≈ 0.13 µM); MIC [3]: 0.06 µg/mL (≈ 0.13 µM); MIC [4]: 0.06 µg/mL (≈ 0.13 µM)
CC[C@H](C)[C@H](NC(=O)CN)C(=O)NCC(=O)N[C@@H](C)C(=O)N[C@H](C(=O)N[C@@H](CC(C)C)C(=O)N[C@@H](CCCCN)C(=O)N[C@H](C(=O)N[C@@H](CC(C)C)C(=O)N[C@H](C(=O)N[C@H](C(=O)NCC(=O)N[C@@H](CC(C)C)C(=O)N1CCC[C@H]1C(=O)N[C@@H](C)C(=O)N[C@@H](CC(C)C)C(=O)N[C@H](C(=O)N[C@@H](CO)C(=O)N[C@@H](Cc1c[nH]c2ccccc12)C(=O)N[C@H](C(=O)N[C@@H](CCCCN)C(=O)N[C@@H](CCCNC(=N)N)C(=O)N[C@@H](CCCCN)C(=O)N[C@@H](CCCNC(=N)N)C(=O)N[C@@H](CCC(N)=O)C(=O)N[C@@H](CCC(N)=O)C(N)=O)[C@@H](C)CC)[C@@H](C)CC)[C@@H](C)O)[C@@H](C)O)C(C)C)C(C)C [MELITTIN] | >16 | Active | 5.2% | Toxic | 32 µg/mL |  |  |  |  |  |  |  |  |  |  |  |  |  |  |  | Selectivity ratio [6]: >16
CCn1cc(C(=O)O)c(=O)c2cc(F)c(N3CCNCC3)cc21 [NORFLOXACIN] |  |  |  |  |  |  |  |  |  |  |  |  |  |  |  |  |  |  |  |  | Ratio [11]: 4
CC(=O)NC[C@H]1CN(c2ccc(N3CCOCC3)c(F)c2)C(=O)O1 [LINEZOLID] |  | inactive | 56.5% |  |  | Active | 1.36% | 0.67 h | Active | Active | 1 µg/mL (≈ 2.96 µM) | Active | Active | > 128 µg/mL | 3.24 log10CFU/ml | 0.49% | inactive | 377 a.u. | > 128 µg/mL | > 1280 µg/mL | Activity [20]: 13.01%; Activity [10]: Active; Activity [26]: Active
CCCCC[N+](C)(C)CC(=O)N1CCN(c2ccc(N3C[C@H](CNC(C)=O)OC3=O)cc2F)CC1.[Br-] |  |  |  |  |  |  |  |  |  |  | > 128 µg/mL |  |  | > 128 µg/mL |  |  |  |  | > 128 µg/mL | > 1280 µg/mL | MIC [29]: 16 µg/mL
CC(=O)NC[C@H]1CN(c2ccc(N3CCN(C(=O)CN(C)Cc4ccc([N+](=O)[O-])cc4)CC3)c(F)c2)C(=O)O1 | 4 | inactive | 59.8% | Non-toxic | 8 µg/mL | Active; Small Amount Of Leakage Observed | 0.3% | 0.44 h | Active | Active | 8 µg/mL (≈ 14.7 µM) | Active; Small Amount Of Leakage Observed | Active | > 128 µg/mL | 3.71 log10CFU/ml | 0.04% | inactive | 280 a.u. | > 128 µg/mL | > 1280 µg/mL | Activity [30]: ~1 10^4CFU/ml; MIC [31]: 2 µg/mL; Activity [32]: Active; MIC [29]: 2 µg/mL (≈ 3.69 µM); Activity [33]: Non-toxic; Activity [34]: 45.89%; Activity [35]: inactive; MIC [36]: 4 µg/mL; MIC [37]: 2 µg/mL; Ratio [38]: 2; Activity [39]: Active; Activity [26]: Active; Small Amount Of Leakage Observed; PAE [40]: 5.13 h; hemolysis at 1 h, 1280 microg/ml [41]: 3.19%
